Data taken from patent US20010038824A1, “Intranasal cyclic peptide formulations” (priority 2000, published 2001).
Numbered stars: 1 amine (or outer) side, 2 acyl side, 3 side chain; on linkers, the order of the positions; unused ones are H or OH. Bridge positions count the residues as written; N and C are the ends. Square brackets hold non-standard residues; d marks the D form. Peptide text beside a SMILES is read from it. ξ: configuration not given here. X9 = O=C(C[C@@H](CCc1ccc(-c2ccc(OCCCc3ccccc3)cc2)cc1)N[*:2])[*:1]; X11 = CCCCCOc1ccc(-c2ccc(CC[C@H](CC(=O)[*:1])N[*:2])cc2)cc1; X6 = NCCC[C@H](N)C(=O)N(CCCN)CCCC(N[*:1])C(=O)[*:2]; X7 = CCCCCCCCCCCCC(C)[C@H](CC(=O)[*:1])O[*:2]; X4 = CCCCCCCCCCCCC[C@H](CC(=O)[*:1])O[*:2]; X2 = NC(=O)CC(O)C(N[*:1])C(=O)[*:2]; ξDopa = NC(Cc1ccc(O)c(O)c1)C(=O)O; X1 = O=C(C1C(O)CCN1[*:1])[*:2]; ξY = NC(Cc1ccc(O)cc1)C(=O)O; ξHyp = O=C(O)C1CC(O)CN1; ξOrn = NCCCC(N)C(=O)O; ξT = CC(O)C(N)C(=O)O; ξV = CC(C)C(N)C(=O)O; ξA = CC(N)C(=O)O; Sar = CNCC(=O)O

Columns and labels:
[1] = tested on: Aspegillus fumigatus CF1003; test: In vitro antifungal activity, broth micro-dilution; format: cell-based; details: YNB medium with 0.2% agarose, 1-2 days at 35° C.
Procedure: (§1) The in vitro antifungal activities of the representative Aerothricins of the present study were evaluated by determining the 50% inhibitory concentration (IC50), which was calculated as the lowest concentration of an antifungal to inhibit the growth of fungus to […] turbidity compared with the drug-free control growth spectrophotometrically.
(§2) The IC50 values were determined by the broth micro-dilution procedure based on NCCLS Approved Standard with the following minor modifications (National Committee for Clinical Laboratory Standards. (1997) Reference method for broth dilution antifungal susceptibility testing for yeasts. Approved standard. Document M27-A). Yeast Nitrogen Base (YNB; Difco Lab.) supplemented with 1% glucose and 0.25% K2HPO4 was used as testing medium for yeast, the same medium solidified with 0.2% low melting point agarose (BRL) was used for filamentous fungi. Inoculum size was 1-3×10^4 cells/ml, and incubation was performed for 1-2 days at 35° C.

Candida albicans CY1002 = test: In vitro antifungal activity, broth micro-dilution; format: cell-based; details: YNB medium, 1-2 days at 35° C.
Procedure: as §1, §2

Fusarium solani CF1088 = test: In vitro antifungal activity, broth micro-dilution; format: cell-based; details: YNB medium with 0.2% agarose, 1-2 days at 35° C.
Procedure: as §1, §2

Candida albicans = test: Murine systemic candidiasis; format: in vivo, mice; details: i.v., b.i.d×1 day followed by q.d.×2 days; survival on day 14
Procedure: Mice of a conventional immunocompetent mouse strain, Crj: CD-1 (ICR) were used for experimental infection models of systemic candidiasis. 4 weeks old Crj: CD-1 (ICR) mice were used for systemic candidiasis by injecting Candida albicans 5×10^6 conidia/mouse via the tail vein. Treatments were given twice (0, 4 h after infection) on the first day and once daily on following 2 days for systemic candidiasis (b.i.d×1 day followed by q.d.×2 days), intravenously (i.v.). 50% of effective dose (ED50) values was calculated from the survival number at each dose on day 14.

[2] = Toxicity on administration to mice for 4 weeks; format: in vivo; details: 5 mg/kg and 30 mg/kg to mice for 4 weeks
mouse hepatocytes = test: In vitro hepatotoxicity test; format: cell-based; details: mouse hepatocyte monolayers, 1 day exposure, morphological evaluation
Source text: The mouse hepatocytes were isolated by a collagenase digestion and cultured in microtest plates. The hepatocyte monolayers were exposed to the test Aerothricins in the culture system for 1 day. After the culture period, the hepatocytes were observed under a microscope and evaluated morphologically. The degree of the morphological alteration (degeneration) of the hepatocytes by the test Aerothricins were compared with WF11243 and LY303366.

SMILES | In vitro Antifungal activity, IC50, Aspegillus fumigatus CF1003 [1] | In vitro Antifungal activity, IC50, Candida albicans CY1002 (Candida albicans CY1002) | In vitro Antifungal activity, IC50, Fusarium solani CF1088 (Fusarium solani CF1088) | In vivo antifungal activity against systemic candidiasis in mice, ED50 on day 14 (Candida albicans) | acute toxicity [2] | Solubility (Solubility) | Cytotoxicity to hepatocyte (mouse hepatocytes)
CCCCCOc1ccc(-c2ccc(CC[C@@H]3CC(=O)NC(C(C)O)C(=O)NC(C)C(=O)NC(Cc4ccc(O)cc4)C(=O)NC(C(C)C)C(=O)N4CC(O)CC4C(=O)NC(C(C)O)C(=O)NC(C(C)O)C(=O)N4CCC(O)C4C(=O)NC(C(O)CC(N)=O)C(=O)NCC(=O)NC(C(C)O)C(=O)NC(CCCN)C(=O)N3)cc2)cc1 (stereo partly drawn) [Aerothricin 41] ([ξT][ξA][ξY][ξV][ξHyp][ξT][ξT][X1][X2]G[ξT][ξOrn]; linker N-C via X11) | 0.03 µg/mL | 0.08 µg/mL | 2.40 µg/mL | 0.3 mg/kg | – | – | –
CCCCCCCCCCOc1ccc(CC[C@@H]2CC(=O)NC(C(C)O)C(=O)NC(C)C(=O)NC(Cc3ccc(O)cc3)C(=O)NC(C(C)C)C(=O)N3CC(O)CC3C(=O)NC(C(C)O)C(=O)NC(C(C)O)C(=O)N3CCC(O)C3C(=O)NC(C(O)CC(N)=O)C(=O)NCC(=O)NC(C(C)O)C(=O)NC(CCCN)C(=O)N2)cc1 (stereo partly drawn) [Aerothricin 36] | 0.05 µg/mL | 0.08 µg/mL | 1.00 µg/mL | 0.6 mg/kg | – | – | –
CCCCCCCCCCCCC(C)[C@@H]1CC(=O)NC(C(C)O)C(=O)NC(C)C(=O)NC(Cc2ccc(O)cc2)C(=O)NC(C(C)C)C(=O)N2CC(O)CC2C(=O)NC(C(C)O)C(=O)NC(C(C)O)C(=O)N2CCC(O)C2C(=O)NC(C(O)CC(N)=O)C(=O)NCC(=O)NC(C(C)O)C(=O)NC(CCCN)C(=O)O1 (stereo partly drawn) [Aerothricin 1] ([ξT][ξA][ξY][ξV][ξHyp][ξT][ξT][X1][X2]G[ξT][ξOrn]; linker N-C via X7) | 0.06 µg/mL | 0.03 µg/mL | 0.21 µg/mL | – | no acute toxicity | Soluble: water, methanol, dimethylsulfoxide | –
CCCCCCCCCCCCC[C@@H]1CC(=O)NC(C(C)O)C(=O)NC(C)C(=O)NC(Cc2ccc(O)c(O)c2)C(=O)NC(C(C)C)C(=O)N2CC(O)CC2C(=O)NC(C(C)O)C(=O)NC(C(C)O)C(=O)N2CCC(O)C2C(=O)NC(C(O)CC(N)=O)C(=O)NCC(=O)NC(C(C)O)C(=O)NC(CCCN)C(=O)O1 (stereo partly drawn) [Aerothricin 2] ([ξT][ξA][ξDopa][ξV][ξHyp][ξT][ξT][X1][X2]G[ξT][ξOrn]; linker N-C via X4) | – | – | – | – | – | Soluble: water, methanol, dimethylsulfoxide | –
CCCCCCCCCCCCC[C@@H]1CC(=O)NC(C(C)O)C(=O)NC(C)C(=O)NC(Cc2ccc(OC)cc2)C(=O)NC(C(C)C)C(=O)N2CC(O)CC2C(=O)NC(C(C)O)C(=O)NC(C(C)O)C(=O)N2CCC(O)C2C(=O)NC(C(O)CC(N)=O)C(=O)NCC(=O)NC(C(C)O)C(=O)NC(CCCN)C(=O)O1 (stereo partly drawn) [Aerothricin 5] ([ξT][ξA][ξY](Me)[ξV][ξHyp][ξT][ξT][X1][X2]G[ξT][ξOrn]; linker N-C via X4) | 0.07 µg/mL | 0.03 µg/mL | 0.19 µg/mL | 0.3 mg/kg | – | – | –
CCCCCCCCCCCCC[C@@H]1CC(=O)NC(C(C)O)C(=O)NC(C)C(=O)NC(Cc2ccc(O)cc2)C(=O)NC(C(C)C)C(=O)N2CC(O)CC2C(=O)NC(C(C)O)C(=O)NC(C(C)O)C(=O)N2CCC(O)C2C(=O)NC(C(O)CC(N)=O)C(=O)NCC(=O)NC(C(C)O)C(=O)NC(CCCN(CCCN)C(=O)[C@@H](N)CCCN)C(=O)O1 (stereo partly drawn) [Aerothricin 132] ([ξT][ξA][ξY][ξV][ξHyp][ξT][ξT][X1][X2]G[ξT][X6]; linker N-C via X4) | 0.10 µg/mL | 0.30 µg/mL | 0.19 µg/mL | – | – | – | >100 µg/mL
CC1NC(=O)C(C(C)O)NC(=O)C[C@@H](CCc2ccc(-c3ccc(OCCCc4ccccc4)cc3)cc2)NC(=O)C(CCCN)NC(=O)C(C(C)O)NC(=O)CNC(=O)C(C(O)CC(N)=O)NC(=O)C2C(O)CCN2C(=O)C(C(C)O)NC(=O)C(C(C)O)NC(=O)C2CC(O)CN2C(=O)C(C(C)C)NC(=O)C(Cc2ccc(O)cc2)NC1=O (stereo partly drawn) [Aerothricin 46] ([ξT][ξA][ξY][ξV][ξHyp][ξT][ξT][X1][X2]G[ξT][ξOrn]; linker N-C via X9) | 0.08 µg/mL | 0.09 µg/mL | 1.80 µg/mL | 0.4 mg/kg | – | – | –
CCCCCCCCCCCCC[C@@H]1CC(=O)NC(C(C)O)C(=O)NC(C)C(=O)NC(Cc2ccc(O)cc2)C(=O)NC(C(C)C)C(=O)N2CC(O)CC2C(=O)NC(C(C)O)C(=O)NC(C(C)O)C(=O)N2CCC(O)C2C(=O)NC(C(O)CC(N)=O)C(=O)NCC(=O)NC(C(C)O)C(=O)NC(CCCNC(=O)CNC)C(=O)O1 (stereo partly drawn) [Aerothricin 14] ([ξT][ξA][ξY][ξV][ξHyp][ξT][ξT][X1][X2]G[ξT][ξOrn](Sar); linker N-C via X4) | – | – | – | – | – | – | >100 µg/mL
